# Results taken from patent US10154813B1, “Method and apparatus for patient skin color monitoring and drug efficacy measurement” (priority 2017, dated 2018).
# “And” between values parts separate entries of the source, which are not always exact repeats. Equal entries are not always repeated.
# Tested on: microvascular endothelium (skin, right arm, anterior position) of Congestive Heart Failure patients
# Assay: Skin colorimetry (a, b, L) before and after application of “μ” in Congestive Heart Failure patients on Valsartan, monthly for 9 months
# Type: in vivo, human
# Set-up: key to a. Wet after “μ”: a = red/green colour coordinate (colorimeter); key to b (Wet): b = yellow/blue colour coordinate (colorimeter)
# Settings: for L / a / b: baseline before μ; for L (Wet) / a. Wet after “μ” / b (Wet): wet after μ
# Description: As stated above, one available quantitative color system is the L*a*b* color space or Hunter L/a/b color space, which can be visualized as a rectangular 3D coordinate system. L indicates lightness, a is the red/green coordinate, and b is the yellow/blue coordinate. L can have a value from 0 (black) to 100 (perfect reflection). The a and b axes have no numerical limits. Coordinate a is positive when red, and negative when green. Positive b is yellow, and negative b is blue. Colors can be described numerically using numerical values for L, a, and b. Differences between two colors can be quantified for each of the individual L/a/b values (ΔL, Δa, Δb). Overall differences between two colors can be derived numerically based on the three Δ values.
# μ=drug applied before colorimeter and/or spectrophotometer measurements.
# L1, a1, b1=Initial measurement.
# L2, a2, b2=Measurement with μ applied. L2−L1=ΔLμ(L2 minus L1)=change in lightness and darkness(+=lighter,−=darker) a2−a1=Δaμ(a2 minus a1)=change in red and green(+=redder,−=greener) b2−b1=Δbμ(b2 minus b1)=change in yellow and blue(+=yellower,−=bluer)
# With reference to the tables below and to FIG. 18, the three different patients (Patient A, Patient B, and Patient C) had new diagnosis of Congestive Heart Failure (CHF). Patient A, B, C have diastolic and systolic heart failure with an ejection fraction of 35% with normal coronary artery disease by angiography. All three patients were started on an angiotensin receptor blocker Valsartan and followed continuously every month for 9 months. The a, b, L were calculated before and after the “μ” has been applied shown in color red. The blue indicates the baseline. At the initiation of the CHF medication Valsartan, the patient has a normal response of the microvascular endothelium after the application of “μ” in the calculations of a, b, L. All colorimetric and spectrophotometric calculations are performed at the same location on the right arm, in the anterior position in all three patients continuously for 9 months. The titration of Valsartan was maximized in all three patients. […] This occurs because it is the desired effect of the CHF medication in the above patients over the period of 9 months. The current standard of care is to improve the heart function in CHF. The cardiologist lowers the ionotropic and chronotropic effect of the heart in CHF patients. The above methodology allows for the appropriate and desired effect in being able to titrate the medication and know how much medicine to administer to the patient by either decreasing or increasing the Valsartan dose. This is performed to achieve the necessary effect of pharmacotherapy with limiting the exacerbation of heart failure symptoms in such patients. It allows for healthcare providers to also know if the effects of the medications are adequate and they are in fact working appropriately on the microscopic endothelium level of the patient. As the months progressed in the patients above, the red line calculations indicate a decreased microvascular endothelial flow. This is evaluated by measuring a decrease in the a shift.
# This correlates with a decrease in the ionotropic and chronotropic effect of the heart in these patients. This is the desired effect and outcome that the cardiologist is trying to achieve. The calculation of a, b, L, after “μ” is applied is objectively calculated in these CHF patients, allowing for the proper titration of maximum medication administration while limiting the side effects of the medications concurrently.
compound,measurement,setting,value
CCCCC(=O)N(Cc1ccc(-c2ccccc2-c2nnn[nH]2)cc1)[C@H](C(=O)O)C(C)C [Valsartan],L,"Patient A, April 2017",70.87
same,a,"Patient A, April 2017",5.05
same,b,"Patient A, April 2017",16.72
same,L,"Patient A, December 2016",70.63
same,a,"Patient A, December 2016",5.20
same,b,"Patient A, December 2016",16.61
same,L,"Patient A, February 2017",70.24
same,a,"Patient A, February 2017",5.12
same,b,"Patient A, February 2017",15.42
same,L,"Patient A, January 2017",71.68
same,a,"Patient A, January 2017",4.70
same,b,"Patient A, January 2017",14.67
same,L,"Patient A, July 2017",71.63
same,a,"Patient A, July 2017",5.48
same,b,"Patient A, July 2017",14.62
same,L,"Patient A, June 2017",69.91
same,a,"Patient A, June 2017",5.02
same,b,"Patient A, June 2017",15.64
same,L,"Patient A, March 2017",70.42
same,a,"Patient A, March 2017",5.14
same,b,"Patient A, March 2017",16.14
same,L,"Patient A, May 2017",71.99
same,a,"Patient A, May 2017",4.98
same,b,"Patient A, May 2017",15.47
same,L,"Patient A, November 2016",70.10
same,a,"Patient A, November 2016",5.59
same,b,"Patient A, November 2016",15.39
same,L (Wet),"Patient A, April 2017",70.72
same,a. Wet after “μ”,"Patient A, April 2017",4.54
same,b (Wet),"Patient A, April 2017",16.78
same,L (Wet),"Patient A, December 2016",69.98
same,a. Wet after “μ”,"Patient A, December 2016",6.35
same,b (Wet),"Patient A, December 2016",16.81
same,L (Wet),"Patient A, February 2017",70.12
same,a. Wet after “μ”,"Patient A, February 2017",6.08
same,b (Wet),"Patient A, February 2017",16.44
same,L (Wet),"Patient A, January 2017",71.76
same,a. Wet after “μ”,"Patient A, January 2017",6.48
same,b (Wet),"Patient A, January 2017",16.48
same,L (Wet),"Patient A, July 2017",70.04
same,a. Wet after “μ”,"Patient A, July 2017",4.46
same,b (Wet),"Patient A, July 2017",16.31
same,L (Wet),"Patient A, June 2017",70.54
same,a. Wet after “μ”,"Patient A, June 2017",4.43
same,b (Wet),"Patient A, June 2017",15.89
same,L (Wet),"Patient A, March 2017",69.42
same,a. Wet after “μ”,"Patient A, March 2017",4.64
same,b (Wet),"Patient A, March 2017",16.85
same,L (Wet),"Patient A, May 2017",69.79
same,a. Wet after “μ”,"Patient A, May 2017",4.20
same,b (Wet),"Patient A, May 2017",15.62
same,L (Wet),"Patient A, November 2016",68.40
same,a. Wet after “μ”,"Patient A, November 2016",7.06
same,b (Wet),"Patient A, November 2016",16.16
same,L,"Patient B, April 2017",73.95
same,a,"Patient B, April 2017",3.25
same,b,"Patient B, April 2017",15.34
same,L,"Patient B, December 2016",72.77
same,a,"Patient B, December 2016",3.36
same,b,"Patient B, December 2016",4.88
same,L,"Patient B, February 2017",74.52
same,a,"Patient B, February 2017",3.06
same,b,"Patient B, February 2017",13.98
same,L,"Patient B, January 2017",74.06
same,a,"Patient B, January 2017",2.66
same,b,"Patient B, January 2017",15.09
same,L,"Patient B, July 2017",74.23
same,a,"Patient B, July 2017",4.20
same,b,"Patient B, July 2017",14.14
same,L,"Patient B, June 2017",74.05
same,a,"Patient B, June 2017",3.85
same,b,"Patient B, June 2017",14.35
same,L,"Patient B, March 2017",74.43
same,a,"Patient B, March 2017",3.09
same,b,"Patient B, March 2017",14.08
same,L,"Patient B, May 2017",73.52
same,a,"Patient B, May 2017",3.40
same,b,"Patient B, May 2017",15.02
same,L,"Patient B, November 2016",73.44
same,a,"Patient B, November 2016",4.15
same,b,"Patient B, November 2016",13.69
same,L (Wet),"Patient B, April 2017",72.58
same,a. Wet after “μ”,"Patient B, April 2017",3.03
same,b (Wet),"Patient B, April 2017",15.69
same,L (Wet),"Patient B, December 2016",73.59
same,a. Wet after “μ”,"Patient B, December 2016",4.04
same,b (Wet),"Patient B, December 2016",15.27
same,L (Wet),"Patient B, February 2017",72.56
same,a. Wet after “μ”,"Patient B, February 2017",3.3
same,b (Wet),"Patient B, February 2017",14.4
same,L (Wet),"Patient B, January 2017",74.23
same,a. Wet after “μ”,"Patient B, January 2017",3.37
same,b (Wet),"Patient B, January 2017",15.38
same,L (Wet),"Patient B, July 2017",72.54
same,a. Wet after “μ”,"Patient B, July 2017",2.25
same,b (Wet),"Patient B, July 2017",14.39
same,L (Wet),"Patient B, June 2017",72.47
same,a. Wet after “μ”,"Patient B, June 2017",2.88
same,b (Wet),"Patient B, June 2017",15.29
same,L (Wet),"Patient B, March 2017",72.62
same,a. Wet after “μ”,"Patient B, March 2017",3.29
same,b (Wet),"Patient B, March 2017",15.85
same,L (Wet),"Patient B, May 2017",73.47
same,a. Wet after “μ”,"Patient B, May 2017",3.71
same,b (Wet),"Patient B, May 2017",15.54
same,L (Wet),"Patient B, November 2016",70.43
same,a. Wet after “μ”,"Patient B, November 2016",4.89 and 4.79
same,b (Wet),"Patient B, November 2016",15.14
same,L,"Patient C, April 2017",73.05
same,a,"Patient C, April 2017",3.16
same,b,"Patient C, April 2017",16.12
same,L,"Patient C, December 2016",75.47
same,a,"Patient C, December 2016",2.84
same,b,"Patient C, December 2016",13.73
same,L,"Patient C, February 2017",73.55
same,a,"Patient C, February 2017",3.64
same,b,"Patient C, February 2017",14.96
same,L,"Patient C, January 2017",74.63
same,a,"Patient C, January 2017",3.93
same,b,"Patient C, January 2017",15.73
same,L,"Patient C, July 2017",75.00
same,a,"Patient C, July 2017",3.55
same,b,"Patient C, July 2017",14.75
same,L,"Patient C, June 2017",74.45
same,a,"Patient C, June 2017",3.44
same,b,"Patient C, June 2017",14.63
same,L,"Patient C, March 2017",74.06
same,a,"Patient C, March 2017",3.20
same,b,"Patient C, March 2017",14.54
same,L,"Patient C, May 2017",75.26
same,a,"Patient C, May 2017",3.50
same,b,"Patient C, May 2017",15.22
same,L,"Patient C, November 2016",73.84
same,a,"Patient C, November 2016",3.35
same,b,"Patient C, November 2016",14.01
same,L (Wet),"Patient C, April 2017",72.89
same,a. Wet after “μ”,"Patient C, April 2017",2.95
same,b (Wet),"Patient C, April 2017",17.26
same,L (Wet),"Patient C, December 2016",72.57
same,a. Wet after “μ”,"Patient C, December 2016",4.84
same,b (Wet),"Patient C, December 2016",14.8
same,L (Wet),"Patient C, February 2017",72.41
same,a. Wet after “μ”,"Patient C, February 2017",3.07
same,b (Wet),"Patient C, February 2017",15.66
same,L (Wet),"Patient C, January 2017",74.12
same,a. Wet after “μ”,"Patient C, January 2017",3.18
same,b (Wet),"Patient C, January 2017",15.31
same,L (Wet),"Patient C, July 2017",74.72
same,a. Wet after “μ”,"Patient C, July 2017",2.3
same,b (Wet),"Patient C, July 2017",14.39
same,L (Wet),"Patient C, June 2017",72.13
same,a. Wet after “μ”,"Patient C, June 2017",2.75
same,b (Wet),"Patient C, June 2017",15.6
same,L (Wet),"Patient C, March 2017",73.55
same,a. Wet after “μ”,"Patient C, March 2017",3.05
same,b (Wet),"Patient C, March 2017",13.67
same,L (Wet),"Patient C, May 2017",73.69
same,a. Wet after “μ”,"Patient C, May 2017",3.1
same,b (Wet),"Patient C, May 2017",15.17
same,L (Wet),"Patient C, November 2016",71.42
same,a. Wet after “μ”,"Patient C, November 2016",4.99
same,b (Wet),"Patient C, November 2016",14.01
same,effect on flow to the microvascular circulation of the endothelium (a shift after μ),"Patients A, B, C, at rest, over 9 months, maximized titration",a decrease in the flow to the microvascular circulation of the endothelium at rest
